The record followed here is ChEMBL document CHEMBL3822389, “New insights into 3-(aminomethyl)naphthoquinones: Evaluation of cytotoxicity, electrochemical behavior and search for structure-activity correlation” (Bioorg Med Chem Lett, 2016).

Test [1] can be described thus: Cytotoxicity against human HCT8 cells after 72 hrs by MTT assay. The class given is functional, cell-based, HCT-8.
Test [2] in a line: Cytotoxicity against human SF295 cells after 72 hrs by MTT assay. Type of test: functional, cell-based, SF-295. (Tetrazolium assays rely on reduction of a dye to a coloured formazan, in cell work by metabolically active cells.)
The nature of test [3]: Cytotoxicity against human HL60 cells after 72 hrs by MTT assay. Type of test: functional, cell-based, HL-60.
The next test relates to MDA-MB-435. The experiment in a line: Cytotoxicity against human MDA-MB-435 cells after 72 hrs by MTT assay. The class given is functional, cell-based.

The structures appear in SMILES notation.

A word on the IC50: it is the point on the concentration scale where inhibition reaches its midpoint. A higher IC50 goes with lower potency. As to `CCCCCCCNC(C1=C(O)C(=O)c2ccccc2C1=O)c1ccccc1` (stereo not drawn), the IC50 was over 40 µM in test [1] (Homo sapiens, HCT-8, 72 h); over 40 µM in test [2] (Homo sapiens, SF-295, 72 h); over 40 µM in test [3] (Homo sapiens, HL-60, 72 h); over 40 µM with MDA-MB-435 (Homo sapiens, MDA-MB-435, 72 h).

On to `CC(C)(C)OC(=O)NCCNC(C1=C(O)C(=O)c2ccccc2C1=O)c1ccc([N+](=O)[O-])cc1` (stereo not drawn), for which the IC50 in test [1] (Homo sapiens, HCT-8, 72 h) is over 40 µM; in test [2] (Homo sapiens, SF-295, 72 h) it was over 40 µM; in test [3] (Homo sapiens, HL-60, 72 h), over 40 µM; in the test on MDA-MB-435 (Homo sapiens, MDA-MB-435, 72 h) it was over 40 µM.

`CC(C)(C)OC(=O)NCCCNC(C1=C(O)C(=O)c2ccccc2C1=O)c1ccccc1O` (stereo not drawn): the IC50 in test [1] (Homo sapiens, HCT-8, 72 h) came out at 22.7 µM; in test [2] (Homo sapiens, SF-295, 72 h), 26 µM; in test [3] (Homo sapiens, HL-60, 72 h), 17.2 µM; in the test on MDA-MB-435 (Homo sapiens, MDA-MB-435, 72 h) it was 37.8 µM.

For `CC(C)(C)OC(=O)NCCNCC1=C(O)C(=O)c2ccccc2C1=O`, the half-inhibitory concentration (IC50) in test [1] (Homo sapiens, HCT-8, 72 h) is over 40 µM; in test [2] (Homo sapiens, SF-295, 72 h), over 40 µM; in test [3] (Homo sapiens, HL-60, 72 h), over 40 µM; in the test with MDA-MB-435 (Homo sapiens, MDA-MB-435, 72 h), over 40 µM.

With `CC(C)(C)OC(=O)NCCNC(C1=C(O)C(=O)c2ccccc2C1=O)c1ccccc1` (stereo not drawn), the IC50 in test [1] (Homo sapiens, HCT-8, 72 h) is over 40 µM; in test [2] (Homo sapiens, SF-295, 72 h) it was over 40 µM; in test [3] (Homo sapiens, HL-60, 72 h) it was over 40 µM; in the test on MDA-MB-435 (Homo sapiens, MDA-MB-435, 72 h), over 40 µM.

In the case of `CCCCNC(C1=C(O)C(=O)c2ccccc2C1=O)c1cc(C)ccc1O` (stereo not drawn) [listing 1 of 2 here], the IC50 in test [1] (hct-8) was 5.6 µM; in test [2] (sf-295), 5.5 µM; in test [3] (hl-60) it was 1.6 µM; with MDA-MB-435 (mda-mb-435) it was 11 µM.

With `CCCCNC(C1=C(O)C(=O)c2ccccc2C1=O)c1cc(C)ccc1O` (stereo not drawn) [listing 2 of 2 here], the IC50 in test [1] (hct-8) worked out at 17 µM; in test [2] (sf-295), 29.6 µM; in test [3] (hl-60), 6 µM; with MDA-MB-435 (mda-mb-435) it was 26.5 µM.

Consider `O=C1C(O)=C(C(NCc2ccccc2)c2ccc([N+](=O)[O-])cc2)C(=O)c2ccccc21` (stereo not drawn) [listing 1 of 2 here], for which the IC50 in test [2] (Homo sapiens, SF-295, 72 h) is over 40 µM; in test [3] (Homo sapiens, HL-60, 72 h), over 40 µM.

As for `CCCCNC(C1=C(O)C(=O)c2ccccc2C1=O)c1ccc([N+](=O)[O-])cc1` (stereo not drawn), the IC50 in test [1] (Homo sapiens, HCT-8, 72 h) is over 40 µM; in the test on MDA-MB-435 (Homo sapiens, MDA-MB-435, 72 h) it was over 40 µM.

With `CCCCNC(C1=C(O)C(=O)c2ccccc2C1=O)c1ccccc1O` (stereo not drawn), the IC50 in test [1] (hct-8) was determined as 20.5 µM; in test [2] (Homo sapiens, SF-295, 72 h) it was 33.3 µM; in test [3] (hl-60), 6.5 µM; with MDA-MB-435 (mda-mb-435) it was 25.6 µM.

For the molecule `O=C1C(O)=C(C(Nc2ccccc2)c2ccccn2)C(=O)c2ccccc21` (stereo not drawn), the IC50 is over 40 µM in test [1] (Homo sapiens, HCT-8, 72 h); over 40 µM in test [2] (Homo sapiens, SF-295, 72 h); over 40 µM in test [3] (Homo sapiens, HL-60, 72 h); over 40 µM in the test on MDA-MB-435 (Homo sapiens, MDA-MB-435, 72 h).

`CCCCCCCNC(C1=C(O)C(=O)c2ccccc2C1=O)c1ccccn1` (stereo not drawn): the 50% inhibitory concentration (IC50) in test [1] (Homo sapiens, HCT-8, 72 h) was 1.6 µM; in test [2] (Homo sapiens, SF-295, 72 h) it was 1 µM; in test [3] (Homo sapiens, HL-60, 72 h), 1.8 µM; in the test with MDA-MB-435 (Homo sapiens, MDA-MB-435, 72 h), over 40 µM.

As to `CCCCNC(C1=C(O)C(=O)c2ccccc2C1=O)c1cc(Br)ccc1O` (stereo not drawn) [listing 1 of 2 here], the IC50 was 12.5 µM in test [1] (hct-8); 21.4 µM in test [2] (Homo sapiens, SF-295, 72 h); 6.2 µM in test [3] (hl-60); 23.9 µM in the test with MDA-MB-435 (mda-mb-435).

On to `CCCCNC(C1=C(O)C(=O)c2ccccc2C1=O)c1ccc(Cl)cc1Cl` (stereo not drawn), for which the IC50 was over 40 µM in test [1] (Homo sapiens, HCT-8, 72 h) and over 40 µM with MDA-MB-435 (Homo sapiens, MDA-MB-435, 72 h).

With `O=C1C(O)=C(C(NCc2ccccc2)c2ccc([N+](=O)[O-])cc2)C(=O)c2ccccc21` (stereo not drawn) [listing 2 of 2 here], the IC50 is over 40 µM in test [1] (Homo sapiens, HCT-8, 72 h) and over 40 µM in the test with MDA-MB-435 (Homo sapiens, MDA-MB-435, 72 h).

For the molecule `CC(C)(C)OC(=O)NCCCNC(C1=C(O)C(=O)c2ccccc2C1=O)c1cccc(O)c1` (stereo not drawn), the IC50 in test [1] (Homo sapiens, HCT-8, 72 h) is over 40 µM; in test [2] (Homo sapiens, SF-295, 72 h) it was over 40 µM; in test [3] (Homo sapiens, HL-60, 72 h) it was over 40 µM; in the test on MDA-MB-435 (Homo sapiens, MDA-MB-435, 72 h), over 40 µM.

Take `CCCCCCCNC(C1=C(O)C(=O)c2ccccc2C1=O)c1cccc(O)c1` (stereo not drawn): the IC50 in test [1] (Homo sapiens, HCT-8, 72 h) is over 40 µM; in test [2] (Homo sapiens, SF-295, 72 h), over 40 µM; in test [3] (Homo sapiens, HL-60, 72 h) it was over 40 µM; in the test on MDA-MB-435 (Homo sapiens, MDA-MB-435, 72 h) it was over 40 µM.

For the molecule `CCCCNC(C1=C(O)C(=O)c2ccccc2C1=O)c1cc(Br)ccc1O` (stereo not drawn) [listing 2 of 2 here], the IC50 in test [1] (hct-8) was over 40 µM; in test [2] (sf-295) it was over 40 µM; in test [3] (hl-60), over 40 µM; in the test on MDA-MB-435 (Homo sapiens, MDA-MB-435, 72 h), over 40 µM.

`CCCCNC(C1=C(O)C(=O)c2ccccc2C1=O)c1ccccn1` (stereo not drawn): the IC50 in test [1] (Homo sapiens, HCT-8, 72 h) is 12.5 µM; in test [2] (Homo sapiens, SF-295, 72 h) it was 9.5 µM; in test [3] (Homo sapiens, HL-60, 72 h), over 40 µM; in the test on MDA-MB-435 (Homo sapiens, MDA-MB-435, 72 h), over 40 µM.

As to `CC(C)(C)OC(=O)NCCNC(C1=C(O)C(=O)c2ccccc2C1=O)c1cccc(O)c1` (stereo not drawn), the IC50 is over 40 µM in test [1] (Homo sapiens, HCT-8, 72 h); over 40 µM in test [2] (Homo sapiens, SF-295, 72 h); over 40 µM in test [3] (Homo sapiens, HL-60, 72 h); over 40 µM in the test on MDA-MB-435 (Homo sapiens, MDA-MB-435, 72 h).

Turning to `CC(C)(C)OC(=O)NCCCNC(C1=C(O)C(=O)c2ccccc2C1=O)c1ccc(Cl)cc1Cl` (stereo not drawn), the IC50 in test [1] (Homo sapiens, HCT-8, 72 h) is 21.2 µM; in test [2] (Homo sapiens, SF-295, 72 h) it was over 40 µM; with MDA-MB-435 (Homo sapiens, MDA-MB-435, 72 h) it was 16.2 µM.

For the molecule `O=C1C(O)=C(C(NCCCCl)c2ccc([N+](=O)[O-])cc2)C(=O)c2ccccc21` (stereo not drawn), the IC50 was over 40 µM in test [1] (Homo sapiens, HCT-8, 72 h); over 40 µM in test [2] (Homo sapiens, SF-295, 72 h); over 40 µM in test [3] (Homo sapiens, HL-60, 72 h); over 40 µM in the test on MDA-MB-435 (Homo sapiens, MDA-MB-435, 72 h).

Turning to `CCCCCCCCCCNC(C1=C(O)C(=O)c2ccccc2C1=O)c1ccccn1` (stereo not drawn), the IC50 in test [1] (Homo sapiens, HCT-8, 72 h) turned out to be 1.7 µM; in test [2] (Homo sapiens, SF-295, 72 h) it was 1.7 µM; in test [3] (Homo sapiens, HL-60, 72 h), 3.8 µM; in the test with MDA-MB-435 (Homo sapiens, MDA-MB-435, 72 h) it was 23.3 µM.
